# Assay results from PMC12114633, “α-Glucosidase Inhibition Mechanism and Anti-Hyperglycemic Effects of Flavonoids from Astragali Radix and Their Mixture Effects” (Pharmaceuticals, 2025).
# Like-named read-outs stand apart in the source and are kept apart here.
# Legend:
# [1] = biological target: T1, α-glucosidase (Saccharomyces cerevisiae, UniProt P53341); assay: Mixture effects of flavonoid combinations on α-glucosidase; type: biochemical; conditions: calculated from the dose–response curve
# T1 construct: purchased Shanghai Yuanye Biotechnology Co., Shanghai, China Lot No. M23HS178879 (catalogue number not given)
# Experimental: (§1) The α-glucosidase inhibitory effects of flavonoids were evaluated as in a previous report with slight modifications (including changes in the concentrations of the enzyme, substrate, and Na2CO3). Briefly, 50 μL of phosphate-buffered saline (PBS, 0.1 M, pH 6.8), the test compound, and α-glucosidase (0.2 U/mL) were preincubated in a 96-well plate at 37 °C for 10 min. The reaction was then initiated by adding 50 μL of 5 mM pNPG as the substrate. Subsequently, the 96-well plate was incubated for an additional 30 min at 37 °C, then 50 μL of 0.2 M Na2CO3 was added to terminate the reaction. Absorbance was measured at under 405 nm.
# The inhibitory activity of the composition was evaluated using the same method described in Section 3.2. […] The combination index (CI, Formula (3)) was subsequently used to assess the interactions between the compounds [60].(2) Y=Bottom+Top−Bottom/1+10^^((LogIC50−X)×HillSlope)
# In Formula (3), (D)j represents the concentration of component j in the mixture needed to achieve an effect of x, while (Dx)j denotes the concentration of component j required to produce the same effect when acting alone. Here, x refers to the inhibition rate produced by the composition, and n indicates the number of individual compounds in the composition.
# [2] = biological target: T1, α-glucosidase; assay: Inhibitory kinetic analysis (Lineweaver–Burk plot); type: biochemical; conditions: Lineweaver–Burk plots, pNPG 0.31–20 mM
# Experimental: The type of inhibition was determined by using the kinetics curve and the Lineweaver–Burk plot. […] These compounds were incubated with α-glucosidase at 37 °C for 30 min. After incubation, various concentrations of pNPG (0.31–20 mM) were added, and absorbance was measured at 405 nm. The Lineweaver–Burk plot was obtained by plotting 1/[S] on the x-axis and 1/v on the y-axis, where [S] represents substrate concentration and v represents the reaction velocity.
# [3] = biological target: T2, Saccharomyces cerevisiae α-glucosidase (Saccharomyces cerevisiae, UniProt P53341); assay: biochemical; conditions: 5 mM pNPG, PBS pH 6.8, 37 °C
# T2 construct: purchased Shanghai Yuanye Biotechnology Co., Shanghai, China Lot No. M23HS178879 (catalogue number not given)
# Experimental: as §1
# [4] = biological target: T1, α-glucosidase; assay: biochemical; type: binding; conditions: for binding to α-glucosidase (SPR): result in words
# Experimental: SPR analysis was performed using the Biacore 8K system (GE Healthcare, Uppsala, Sweden). α-Glucosidase (0.05 mg/mL) was fixed on the CM5 sensor chip by an amine coupling kit. Subsequently, various concentrations of the 16 flavonoids dissolved in 5% DMSO were continuously injected onto the surface of α-glucosidase coated surface. After each sample injection, the sensor chip surface was washed and regenerated with running buffer (PBS) at a flow rate of 30 µL/min. According to the 1:1 Langmuir model, the equilibrium dissociation constant (KD) was calculated by the Biacore evaluation software. For sensorgrams without significant kinetic features, the KD values were calculated using the steady-state analysis.
# [5] = biological target: T1, α-glucosidase; assay: CD spectroscopy, secondary structure of α-glucosidase (BeStSel); conditions: for β-turn: free enzyme 11.7; for β-sheet: free enzyme 28.8; for random coil: free enzyme 45.2; for α-helix: free enzyme 14.4
# Experimental: CD spectra in the far-UV region (190–250 nm) were scanned by using a CD spectrometer (JASCO-1.5 Tokyo, Japan). […] The slit width was set to 1 nm, and the baseline was calibrated with PBS (phosphate buffered saline). CD spectra were averaged over three scans under a constant nitrogen flow, with the buffer signal subtracted. The results were analyzed using the BeStSel database (https://bestsel.elte.hu/index.php, accessed on 16 May 2025).
# [6] = test system: normal C57BL/6J mice; assay: Oral sucrose test, postprandial blood glucose; type: in vivo; conditions: for Blood glucose levels: 30 min after sucrose 4 g/kg, n = 8, in mmol/L (unit assumed); for Rate of blood glucose reduction: vs model group, 30 min after sucrose
# Excerpt: Male C57BL/6J mice of SPF grade, aged 6–8 weeks and weighing 18–22 g, were obtained from the Experimental Animal Science Department of Peking University. The mice were housed in a controlled environment with a 12:12 light/dark cycle and a constant temperature. They were provided with standard pellet feed and given free access to drinking water. To ensure acclimatization, the mice were allowed to adjust to the diet and housing conditions for one week prior to the experiment. All animal experiments were performed in compliance with the relevant laws and institutional guidelines for the care and use of laboratory animals in China. The experiments were approved by the Laboratory Animal Management and Ethics Committee of Peking University (LA2021443). Additionally, the certification number for the laboratory animal personnel is 1120111300011.
# The 16 flavonoids were subsequently evaluated for their potential antihyperglycemic effects by using the oral sucrose test, which is commonly used to evaluate intestinal α-glucosidase inhibition in vivo [62]. Normal C57BL/6J mice were randomly divided into model groups and the 16 flavonoid compound groups (n = 8 per group), respectively. The flavonoids at different concentrations were suspended in 0.5% sodium carboxymethyl cellulose (CMC-Na). […] Fifteen minutes after drug administration, the mice were given a sucrose solution (4 g/kg). Blood samples were collected from the tail vein at 30 min after sucrose loading, and blood glucose levels were measured using an Accu-Chek Performa glucometer (Roche Diagnostics, SN: 79508621393, Shanghai, China). The rate of blood glucose reduction was calculated using the following Formula (4):(4) The rate of blood glucose reduction%=the model blood glucose-the sample blood glucose/the model blood glucose×100%
# [7] = biological target: α-glucosidase; conditions: cited from earlier work
# [8] = molar ratio 10:1, α-glucosidase 4 μM
# [9] = molar ratio 40:1, α-glucosidase 4 μM
# [10] = molar ratio compound:α-glucosidase 10:1, α-glucosidase 4 μM
# [11] = literature values, reference given, read-out: IC50 in References
# [12] = α-glucosidase 0.2 U/mL, read-out: IC50
# [13] = kinetic model (1:1 Langmuir), read-out: KD
# T2 sequence (P53341 whole entry): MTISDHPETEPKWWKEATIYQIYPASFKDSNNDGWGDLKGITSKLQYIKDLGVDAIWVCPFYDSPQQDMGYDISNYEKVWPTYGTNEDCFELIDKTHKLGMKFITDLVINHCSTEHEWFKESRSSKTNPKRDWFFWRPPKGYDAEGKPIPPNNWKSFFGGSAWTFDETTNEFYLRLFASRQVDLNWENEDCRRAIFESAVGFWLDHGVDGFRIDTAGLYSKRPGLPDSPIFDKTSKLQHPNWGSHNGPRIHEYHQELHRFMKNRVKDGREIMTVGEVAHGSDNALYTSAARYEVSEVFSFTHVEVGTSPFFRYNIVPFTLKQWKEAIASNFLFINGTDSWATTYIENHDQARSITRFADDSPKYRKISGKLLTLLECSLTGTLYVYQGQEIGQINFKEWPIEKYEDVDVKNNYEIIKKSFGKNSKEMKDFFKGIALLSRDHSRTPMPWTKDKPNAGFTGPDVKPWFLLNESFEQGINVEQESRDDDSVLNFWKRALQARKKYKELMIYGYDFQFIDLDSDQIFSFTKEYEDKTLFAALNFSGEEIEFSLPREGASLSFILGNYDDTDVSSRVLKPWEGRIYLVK
# T1 sequence (P53341 whole entry): as above
molecule,measurement,setting,value
"O=C(/C=C/c1ccc(O)cc1)c1ccc(O)cc1O [C4, isoliquiritigenin]",IC05,[1],9.73 µM
same,IC15 (concentration corresponding to a 15% inhibition rate),[1],20 µM
same,type of inhibition on α-glucosidase,[2],mixed-type inhibitors
same,IC50,"[3]; IC50, α-glucosidase 0.2 U/mL",69.1 ± 10.7 µM
same,Kd,[4],> 2000 µM
same,binding to α-glucosidase (SPR),[4],did not show binding
same,β-turn,[5]; [8],11.7%
same,β-sheet,[5]; [8],31.0%
same,random coil,[5]; [8],42.3%
same,β-turn,[5]; [9],12.1%
same,α-helix,[5]; [9],14.1%
same,β-sheet,[5]; [9],24.1%
same,random coil,[5]; [9],49.7%
same,α-helix,[5]; [10],15.0%
same,Blood glucose levels,[6]; 10 mg/kg oral,12.81 ± 1.00
same,Rate of blood glucose reduction,[6]; 10 mg/kg oral,8.07%
same,Blood glucose levels,[6]; 50 mg/kg oral,13.05 ± 1.44
same,Rate of blood glucose reduction,[6]; 50 mg/kg oral,6.37%
same,Blood glucose levels,[6]; 250 mg/kg oral,11.90 ± 0.62
same,Rate of blood glucose reduction,[6]; 250 mg/kg oral,14.62%
"CC(=O)Cc1cc(=O)c2c(C)cc(O)c([C@@H]3O[C@H](CO)[C@@H](O)[C@H](O)[C@H]3OC(=O)/C=C/c3ccc(O)cc3)c2o1 [Aloeresin A, reference compound]",IC50,[7]; read-out: IC50,11900 µM
"O=C1C[C@@H](c2ccc(O)cc2)Oc2cc(O)ccc21 [C3, liquiritigenin]",IC05,[1],13.71 µM
same,type of inhibition on α-glucosidase,[2],non-competitive inhibitors
same,IC50,"[3]; IC50, α-glucosidase 0.2 U/mL",161 ± 36.3 µM
same,Kd,[4],> 2000 µM
same,binding to α-glucosidase (SPR),[4],did not show binding
same,β-turn,[5]; [8],14.2%
same,β-sheet,[5]; [8],18.0%
same,random coil,[5]; [8],56.1%
same,β-turn,[5]; [9],16.2%
same,α-helix,[5]; [9],8.00%
same,β-sheet,[5]; [9],16.6%
same,random coil,[5]; [9],59.2%
same,α-helix,[5]; [10],11.7%
same,Blood glucose levels,[6]; 10 mg/kg oral,14.06 ± 1.45
same,Rate of blood glucose reduction,[6]; 10 mg/kg oral,-0.90%
same,Blood glucose levels,[6]; 50 mg/kg oral,13.19 ± 1.35
same,Rate of blood glucose reduction,[6]; 50 mg/kg oral,5.38%
same,Blood glucose levels,[6]; 100 mg/kg oral,11.58 ± 1.23
same,Rate of blood glucose reduction,[6]; 100 mg/kg oral,16.95%
"O=c1c(-c2ccc(O)cc2)coc2cc(O)ccc12 [C11, daidzein]",IC50,[7]; [11],150 µM
same,type of inhibition on α-glucosidase,[2],non-competitive inhibitors
same,IC50,"[3]; IC50, α-glucosidase 0.2 U/mL",83.7 ± 20.2 µM
same,Kd,[4],20 µM
same,β-turn,[5]; [8],12.7%
same,β-sheet,[5]; [8],28.8%
same,random coil,[5]; [8],40.8%
same,β-turn,[5]; [9],14.3%
same,α-helix,[5]; [9],14.6%
same,β-sheet,[5]; [9],25.5%
same,random coil,[5]; [9],45.5%
same,α-helix,[5]; [10],17.7%
aquilarixanthone [reference compound],IC50,[7]; read-out: IC50,678 µM
"COc1ccc(C2COc3cc(O)ccc3C2)c(O)c1OC (stereo not shown) [C17, isomucronulatol]",type of inhibition on α-glucosidase,[2],mixed-type inhibitors
same,IC50,"[3]; IC50, α-glucosidase 0.2 U/mL",354 ± 40.4 µM
same,Kd,[4],> 2000 µM
same,binding to α-glucosidase (SPR),[4],did not show binding
same,β-turn,[5]; [8],11.7%
same,β-sheet,[5]; [8],24.3%
same,random coil,[5]; [8],49.4%
same,β-turn,[5]; [9],13.6%
same,α-helix,[5]; [9],17.4%
same,β-sheet,[5]; [9],31.3%
same,random coil,[5]; [9],37.8%
same,α-helix,[5]; [10],14.6%
same,Blood glucose levels,[6]; 10 mg/kg oral,14.46 ± 0.69
same,Rate of blood glucose reduction,[6]; 10 mg/kg oral,6.32%
same,Blood glucose levels,[6]; 50 mg/kg oral,14.29 ± 0.80
same,Rate of blood glucose reduction,[6]; 50 mg/kg oral,7.45%
same,Blood glucose levels,[6]; 100 mg/kg oral,13.24 ± 1.18
same,Rate of blood glucose reduction,[6]; 100 mg/kg oral,14.25%
"COc1ccc2c(c1OC)OC1c3ccc(O[C@@H]4O[C@H](CO)[C@@H](O)[C@H](O)[C@H]4O)cc3OCC21 (stereo partly shown) [C19, astrapterocarpan-3-O-glucoside]",IC05,[1],82.58 µM
same,type of inhibition on α-glucosidase,[2],non-competitive inhibitors
same,IC50,[3]; [12],348 ± 32.4 µM
same,Kd,[4]; [13],30 µM
same,β-turn,[5]; [8],10.7%
same,β-sheet,[5]; [8],26.7%
same,random coil,[5]; [8],39.9%
same,β-turn,[5]; [9],10.2%
same,α-helix,[5]; [9],43.2%
same,β-sheet,[5]; [9],6.70%
same,random coil,[5]; [9],39.9%
same,α-helix,[5]; [10],22.6%
same,Blood glucose levels,[6]; 1 mg/kg oral,14.30 ± 1.16
same,Rate of blood glucose reduction,[6]; 1 mg/kg oral,7.37%
same,Blood glucose levels,[6]; 10 mg/kg oral,13.71 ± 0.78
same,Rate of blood glucose reduction,[6]; 10 mg/kg oral,11.17%
same,Blood glucose levels,[6]; 100 mg/kg oral,13.31 ± 0.58
same,Rate of blood glucose reduction,[6]; 100 mg/kg oral,13.77%
"Oc1ccc([C@H]2COc3cc(O)ccc3C2)cc1 [C29, equol]",type of inhibition on α-glucosidase,[2],mixed-type inhibitors
same,IC50,"[3]; IC50, α-glucosidase 0.2 U/mL",131 ± 7.65 µM
same,Kd,[4],849 µM
same,β-turn,[5]; [8],14.5%
same,β-sheet,[5]; [8],23.5%
same,random coil,[5]; [8],51.1%
same,β-turn,[5]; [9],13.2%
same,α-helix,[5]; [9],8.50%
same,β-sheet,[5]; [9],23.4%
same,random coil,[5]; [9],55.0%
same,α-helix,[5]; [10],10.9%
same,Blood glucose levels,[6]; 10 mg/kg oral,14.70 ± 1.36
same,Rate of blood glucose reduction,[6]; 10 mg/kg oral,8.20%
same,Blood glucose levels,[6]; 50 mg/kg oral,13.93 ± 0.62
same,Rate of blood glucose reduction,[6]; 50 mg/kg oral,13.04%
same,Blood glucose levels,[6]; 100 mg/kg oral,12.56 ± 1.87
same,Rate of blood glucose reduction,[6]; 100 mg/kg oral,21.55%
"COc1cc(-c2oc3cc(O)cc(O)c3c(=O)c2OC2OC(CO)C(O)C(O)C2O)ccc1O (stereo not shown) [C14, isorhamnetin-3-O-glucoside]",IC50,[7]; [11],275 µM
same,type of inhibition on α-glucosidase,[2],mixed-type inhibitors
same,IC50,[3]; [12],228 ± 34 µM
same,Kd,[4]; [13],383 µM
same,β-turn,[5]; [8],12.8%
same,β-sheet,[5]; [8],33.7%
same,random coil,[5]; [8],40.4%
same,β-turn,[5]; [9],15.7%
same,α-helix,[5]; [9],7.80%
same,β-sheet,[5]; [9],19.8%
same,random coil,[5]; [9],56.6%
same,α-helix,[5]; [10],13.1%
same,Blood glucose levels,[6]; 10 mg/kg oral,14.84 ± 0.62
same,Rate of blood glucose reduction,[6]; 10 mg/kg oral,-2.50%
same,Blood glucose levels,[6]; 50 mg/kg oral,12.66 ± 0.48
same,Rate of blood glucose reduction,[6]; 50 mg/kg oral,12.52%
same,Blood glucose levels,[6]; 100 mg/kg oral,12.19 ± 0.81
same,Rate of blood glucose reduction,[6]; 100 mg/kg oral,15.80%
